How the values were obtained:
[1] = tested on: influenza A/victoria/H3N2; details: 160 ppm exogenous gNO, virions or incubated cells, MDCK cell model; cited from earlier work
S. aureus (Clinical) = details: 200 ppm gNO, saline suspension; cited from earlier work
methemoglobin = test: Phase I safety study: methemoglobin (SpMet) by pulse oximeter; assay type: in vivo, human
Experimental: (§1) After obtaining informed consent, treatment was initiated within 5 days of enrollment. Subjects were housed in a hospital ward and received 160 ppm gNO for 30 minutes every four hours (Q4 h), five times a day, for five consecutive days by inhalation. Subjects returned for follow-up evaluations 3, 7 and 21 days after the final gNO administration. Subject safety was determined by monitoring vital signs, methemoglobin levels, lung function, blood chemistry, hematology, prothrombin time, inflammatory cytokine/chemokines levels and endothelial activation.
The levels of gNO, NO2, O2 and methemoglobin were monitored during the administration of gNO. The target gas mixture was 160 ppm gNO with a nitrogen dioxide (NO2) level of less than 5 ppm and an oxygen (O2) level ranging from 21% to 25%. Inspiratory NO, NO2 and O2 levels were continuously monitored by sampling from the mouthpiece sample port located about 6 millimeters from the mouth of the subject with an AeroNOx (Pulmonox, AB, Canada) NO, NO2 and O2 electrochemical analyzer. Delivery safety was determined by the number of occasions that NO2 exceeded 5 ppm, gNO exceeding 10% variation and O2 dropping below 20% during gNO administration. A commercially available noninvasive pulse oximeter (Rad 57, Masimo Corporation, USA) was used to measure saturation levels at the periphery of methemoglobin (SpMet).
These parameters were measured continuously during every gNO administration course and for 3.5 hours after the first treatment of the day. Daily serum samples were collected and frozen at −80° C. and the serum […] level was measured using the Griess reagent.

P. aeruginosa = details: cited from earlier work
MRSA = details: 200 ppm gNO, saline suspension; cited from earlier work
[2] = continuous delivery of 80 ppm gNO; cited from earlier work
[3] = tested on: human respiratory syncytial virus (rgRSV30); test: RSV plaque assay after 30 minutes exposure to 160 ppm gNO; assay type: cell-based; details: single exposure of 30 minutes to 160 ppm gNO; for reduction of virus viability (factor): vs ambient air
Experimental: The efficacy of treating viral infection by respiratory syncytial virus by the methods presented herein was tested by exposure for 30 minutes of human respiratory syncytial virus (rgRSV30) to a gas mixture containing 160 ppm nitric oxide, using standard plaque assay as described hereinabove.
FIGS. 3A-D present the data obtained in the experiment using tissue culture samples harboring human rgRSV30, coupled to a green fluorescent protein, wherein the control experiment the samples were exposed to a ambient air (data not shown), and the tested samples having a starting viral level of 2000 PFU (FIG. 3A), 1000 PFU (FIG. 3B) and 500 PFU (FIG. 3C), were exposed to 160 ppm gNO for 30 minutes, whereas FIG. 3D presents a comparative bar plot comparing the control to test results.

Acinetobacter sp. = details: 200 ppm gNO, saline suspension; cited from earlier work
[4] = gNO concentrations below 200 ppm, 6 hours/day for 28 days, rats; cited from earlier work
Group B Streptococci = details: 200 ppm gNO, saline suspension; cited from earlier work
[5] = intermittent gNO inhalation; cited from earlier work
E. Coli = details: 200 ppm gNO, saline suspension; cited from earlier work
[6] = Phase I safety study: oxygen saturation (SpO2) by pulse oximeter; assay type: in vivo, human
Experimental: as §1
Abbreviated physical examination by a registered nurse was carried out each day prior to initiation of treatments on days 1-5. Oxygenation was measured with a pulse oximeter (Rad 57, Masimo Corporation, USA) which was used according to manufacturer's guidelines to measure functional oxygen saturation of arterial hemoglobin (SpO2) and heart rate. These parameters were measured continuously during every gNO administration and for 3.5 hours after the first treatment of the day.

Serracia sp. = details: 200 ppm gNO, saline suspension; cited from earlier work
Klebsiella sp.#2 = details: 200 ppm gNO, saline suspension; cited from earlier work
Klebsiella sp.#1 = details: 200 ppm gNO, saline suspension; cited from earlier work
[7] = Phase I safety study: pulmonary function tests; assay type: in vivo, human
Experimental: as §1
Subjects underwent full pulmonary function tests (PFT), including lung diffusing capacity (DLCO) by a trained technician utilizing a calibrated pulmonary function system (Jaeger MasterScreen, VIASYS Healthcare, USA) on screening and days 2, 8, 12 and 26. Spirometry test (Microloop by Micro Medical, England) was performed on days 1, 3 and 4. Effect of gNO on lung function and DLCO was determined by changes from baseline, treatment days and follow up days.

Mycobacterium = details: 200 ppm gNO, saline suspension; cited from earlier work
[8] = 160 ppm gNO 30 minutes, five times a day, five days
[9] = levels of gNO greater than 120 ppm
[10] = vs baseline during the course of the study

[N]=O [gNO, nitric oxide]
viral replication and infectivity [1]: reduced not only viral replication but also their infectivity
LD100 (S. aureus (Clinical)): 4 h
Latent Period (S. aureus (Clinical)): 3 h
−2.5 Log10 (hours) (S. aureus (Clinical)): 3.7 hours
residual increase in SpMet at follow-up (methemoglobin; 3, 7 and 21 days after the final exposure to gNO): did not show any residual increase
all 930 recorded methemoglobin percent levels (SpMet) (methemoglobin; [8]): < 5%
SpMet increase between pretreatment and post treatment (methemoglobin; 160 ppm gNO, p<0.001): about 1%
time for SpMet to return to baseline (methemoglobin; after 160 ppm gNO administration): 3.5 h
accumulative or lingering effect on SpMet (methemoglobin; after five daily treatments for five consecutive days): no accumulative or lingering effect
highest SpMet (methemoglobin; at the end of the 160 ppm gNO treatment): 2.5%
average increase of SpMet (methemoglobin; single 30 minutes treatment course, 160 ppm gNO, ten individuals): 0.9%
reduction of colony formation (P. aeruginosa; [9]): greater than 90%
time required to achieve greater than 90% reduction of colony formation (P. aeruginosa; [9]): 8 to 12 h
survival (downward bactericidal trend) (P. aeruginosa; solid media, increasing gNO concentration up to 160 ppm, vs medical air): 5-10%
LD100 (MRSA): 5 h
Latent Period (MRSA): 3 h
−2.5 Log10 (hours) (MRSA): 4.2 hours
subjects with SpMet exceeding 7% [2]: 35%
viral viability ([3]; starting 500 PFU): substantially nullified
reduction of virus viability (factor) ([3]; starting 1000 PFU): ~10
reduction of virus viability (factor) ([3]; starting 2000 PFU): ~10
LD100 (Acinetobacter sp.): 6 h
Latent Period (Acinetobacter sp.): 4 h
−2.5 Log10 (hours) (Acinetobacter sp.): 5 hours
mortality [4]: No deaths occurred
LD100 (Group B Streptococci): 2 h
Latent Period (Group B Streptococci): 1 h
−2.5 Log10 (hours) (Group B Streptococci): 1.5 hours
clinical symptoms of bovine respiratory disease [5]: shown to decrease the clinical symptoms
LD100 (E. Coli): 5 h
Latent Period (E. Coli): 3 h
−2.5 Log10 (hours) (E. Coli): 4.2 hours
lowest observed SpO2 [6, 8]: 93%
incidences of hypoxemia (less than 85% SpO2) ([6]; during or after gNO administration): No sudden incidences of hypoxemia
SpO2 levels over time between pretreatment and post treatment ([6]; not significant statistically nor clinically): decreased slightly
LD100 (Serracia sp.): 6 h
Latent Period (Serracia sp.): 4 h
−2.5 Log10 (hours) (Serracia sp.): 4.9 hours
LD100 (Klebsiella sp.#2): 5 h
Latent Period (Klebsiella sp.#2): 2 h
−2.5 Log10 (hours) (Klebsiella sp.#2): 4.1 hours
LD100 (Klebsiella sp.#1): 6 h
Latent Period (Klebsiella sp.#1): 3 h
−2.5 Log10 (hours) (Klebsiella sp.#1): 3.5 hours
pulmonary function tests ([7]; during and after gNO administration): did not reveal any abnormalities
DLCO ([7]; vs baseline): did not change from baseline
forced vital capacity (FVC) ([7]; vs baseline): did not change from baseline
residual volume (RV) ([7]; vs baseline): did not change from baseline
total lung capacity (TLC) ([7]; vs baseline): did not change from baseline
FEV1 [7, 10]: did not differ from baseline
maximum mid-expiratory flow (MMEF) [7, 10]: did not differ from baseline
LD100 (Mycobacterium): 10 h
Latent Period (Mycobacterium): 7 h
−2.5 Log10 (hours) (Mycobacterium): 9.2 hours
